From the supplement of paper PMC5579334
± gives the standard deviation of the averaged measurements.

Key:
ST8814 [1] = assay: drug sensitivity score (DSS, CellTox-Green cytotoxicity, 72 h) (DSS (dimensionless)); higher = more cytotoxic; extreme values may be limits of the assay
Procedure, shortened: (§1)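 MPNST cell lines and primary human Schwann cells were grown for 72 h at 37 °C in 384-well plates containing five 10-fold compound dilutions. CellTox-Green, added before seeding at a final 1:1000 dilution, gave fluorescence from DNA released by disrupted cells, and signals were scaled to vehicle and positive-control wells. Curves were fitted with a four-parameter logistic model. Drug sensitivity score and relative IC50 come from these fits, with IC50 censored at the top concentration.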

[2] = system: HSC1 (primary human Schwann cells); assay: as above
Procedure, shortened: as §1

[3] = system: HSC2 (primary human Schwann cells); assay: as above
Procedure, shortened: as §1

S1507-2 [4] = assay: as above
Procedure, shortened: as §1

HS-PSS [5] = assay: as above
Procedure, shortened: as §1

STS26T [6] = assay: as above
Procedure, shortened: as §1

ST8814 [7] = assay: % inhibition of CellTiter-Glo viability at highest tested concentration (72 h), relative to DMSO and benzethonium chloride controls; higher = more inhibition
Procedure, shortened: (§2)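 Viability of MPNST cell lines and primary human Schwann cells was read as CellTiter-Glo ATP luminescence after 72 h at 37 °C, 5% CO2, in 384-well plates seeded with 750–1000 cells per well. Each compound had been preprinted at five concentrations in 10-fold steps. Signals were scaled between vehicle and positive-control wells, duplicates averaged where present, and fitted with four-parameter logistic curves. Drug sensitivity score and relative IC50 (censored at the top concentration) come from those fits, and percent inhibition is taken at the top concentration.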

YST-1 [8] = assay: as above
Procedure, shortened: as §2

[9] = system: HSC1 (primary human Schwann cells); assay: as above
Procedure, shortened: as §2

[10] = system: HSC2 (primary human Schwann cells); assay: as above
Procedure, shortened: as §2

S1507-2 [11] = assay: as above
Procedure, shortened: as §2

HS-PSS [12] = assay: as above
Procedure, shortened: as §2

S462 [13] = assay: as above
Procedure, shortened: as §2

HS-Sch-2 [14] = assay: as above
Procedure, shortened: as §2

STS26T [15] = assay: as above
Procedure, shortened: as §2

ST8814 [16] = assay: drug sensitivity score (DSS, CellTiter-Glo viability, 72 h) (DSS (dimensionless)); higher = more sensitive; extreme values may be limits of the assay
Procedure, shortened: as §2

YST-1 [17] = assay: as above
Procedure, shortened: as §2

[18] = system: HSC1 (primary human Schwann cells); assay: as above
Procedure, shortened: as §2

[19] = system: HSC2 (primary human Schwann cells); assay: as above
Procedure, shortened: as §2

S1507-2 [20] = assay: as above
Procedure, shortened: as §2

HS-PSS [21] = assay: as above
Procedure, shortened: as §2

S462 [22] = assay: as above
Procedure, shortened: as §2

HS-Sch-2 [23] = assay: as above
Procedure, shortened: as §2

STS26T [24] = assay: as above
Procedure, shortened: as §2

Compound | drug sensitivity score (ST8814 [1]) | drug sensitivity score [2] | drug sensitivity score [3] | drug sensitivity score (S1507-2 [4]) | drug sensitivity score (HS-PSS [5]) | drug sensitivity score (STS26T [6]) | % inhibition (ST8814 [7]) [%] | % inhibition (YST-1 [8]) [%] | % inhibition [9] [%] | % inhibition [10] [%] | % inhibition (S1507-2 [11]) [%] | % inhibition (HS-PSS [12]) [%] | % inhibition (S462 [13]) [%] | % inhibition (HS-Sch-2 [14]) [%] | % inhibition (STS26T [15]) [%] | drug sensitivity score (ST8814 [16]) | drug sensitivity score (YST-1 [17]) | drug sensitivity score [18] | drug sensitivity score [19] | drug sensitivity score (S1507-2 [20]) | drug sensitivity score (HS-PSS [21]) | drug sensitivity score (S462 [22]) | drug sensitivity score (HS-Sch-2 [23]) | drug sensitivity score (STS26T [24])
Cc1cn(-c2cc(NC(=O)c3ccc(C)c(Nc4nccc(-c5cccnc5)n4)c3)cc(C(F)(F)F)c2)cn1 [Nilotinib] (max concentration tested 10000 nM) | 0 | 0 | 0.117 | 0 | 0 | 0 | -12.2 | 20.6 | 0.687 | 2.6 | 2.99 ± 0.13 | 23.5 | -3.63 ± 4.4 | 15.4 | -1.55 | 0 | 1.13 | 0 | 0 | 0 | 1.65 | 0 | 3.88 | 0
CC(=O)c1c(C)c2cnc(Nc3ccc(N4CCNCC4)cn3)nc2n(C2CCCC2)c1=O [Palbociclib] (max concentration tested 10000 nM) | 0 | 0 | 0 | 1.02 ± 1.1 | 0 | 0 | 28 | 44.5 | 31.6 | 45.6 | 38.8 ± 0.47 | 41.6 | 72.2 ± 6.1 | 68.8 | 36.7 | 1.84 | 3.89 | 5.26 | 7.37 | 3.73 ± 0.74 | 3.5 | 8.25 ± 0.96 | 5.62 | 3.39
CC(C)C[C@H](NC(=O)[C@H](Cc1ccccc1)NC(=O)c1cnccn1)B(O)O [Bortezomib] (max concentration tested 1000 nM) | 24.3 | 19.8 | 20.1 | 30.1 ± 4.9 | 7.75 | 23.5 | 103 | 100 | 101 | 102 | 103.6 ± 0.17 | 93.5 | 102.5 ± 0.77 | 101 | 102 | 26.3 | 24.2 | 25.6 | 25.7 | 24.458 ± 0.016 | 14.4 | 27.4 ± 0.87 | 30 | 23.7
CNNCc1ccc(C(=O)NC(C)C)cc1 [Procarbazine] (max concentration tested 10000 nM) | 0 | 0 | 0 | 0.135 ± 0.19 | 0 | 0 | 1.52 | 3.64 | 4.32 | 3.15 | -0.333 ± 1.2 | 4.68 | -14.6 ± 3.4 | -5.24 | 4.63 | 0 | 0 | 0 | 0 | 0 | 0 | 0 | 0 | 0
COc1cc2c(Oc3ccc(NC(=O)C4(C(=O)Nc5ccc(F)cc5)CC4)cc3F)ccnc2cc1OCCCN1CCOCC1 [Foretinib] (max concentration tested 1000 nM) | 2.96 | 0 | 0 | 1.26 ± 0.61 | 0.08 | 4.03 | 67.5 | 52.2 | 56.5 | 53.2 | 58.7 ± 5.1 | 20.9 | 50.2 ± 3 | 31.7 | 48.4 | 6.43 | 3.16 | 3.91 | 3.44 | 5.7 ± 0.45 | 1.41 | 3.22 ± 0.43 | 1.15 | 3.62
C[C@]12CC[C@@H]3c4ccc(O)cc4C[C@@H](CCCCCCCCC[S+]([O-])CCCC(F)(F)C(F)(F)F)[C@H]3[C@@H]1CC[C@@H]2O (some centres undefined) [Fulvestrant] (max concentration tested 1000 nM) | 0 | 0 | 0 | 1.33 ± 1.9 | 0 | 0 | -2.59 | 1.11 | 11.4 | 18.2 | -11.9 ± 2.2 | 10.3 | 6.51 ± 4.8 | 8.02 | 4.69 | 0 | 0 | 0.178 | 0.538 | 0 | 0 | 0 | 0 | 0
